Test results: US20250353873A1, “COMPOUNDS AND METHODS FOR MODULATING APOE EXPRESSION” (Ionis Pharmaceuticals, Inc., priority 2024, published 2025)
Several values for one entry are separate records, joined by “and”; a condition that tells them apart may be missing. Identical values can stand only once. Strand notation (5' to 3'): a small letter for the sugar, then the base; units joined by * are phosphorothioate-linked, units joined directly phosphodiester-linked; [ ] holds rarer units or linkages, { } end groups; capitals alone tell only the bases. [ms] = mesyl phosphoramidate linkage; e = 2'-O-(2-methoxyethyl) (MOE); k = constrained ethyl (cEt); [5mC] = 5-methylcytosine; d = 2'-deoxy (DNA)

Legend:
human APOE RNA [1] = experiment: Potency (dose response, ED50) in APOE C57BL/6NTac-Apoeem7250 knock-in mice, 4 weeks (Example 14); assay type: in vivo; conditions: for ED 50 (μg) Cortex / ED 50 (μg) Spinal Cord: single ICV bolus, GraphPad Prism 10
Method: Modified oligonucleotides described above were tested in the APOE C57BL/6NTac-Apoeem7250 knock-in mouse model described above.
APOE C57BL/6NTac-Apoeem7250 knock-in mice were divided into groups of 3-4 mice each. A group of 3-4 mice received a single ICV bolus with PBS as a negative control.
Four weeks post treatment, mice were sacrificed, and RNA was extracted from cortical brain tissue and spinal cord for quantitative real-time RT-PCR analysis of RNA expression of […] using human primer probe set RTS3073 (described herein above). APOE RNA levels were normalized to mouse Ppia. Mouse Ppia was amplified using primer probe set m_cyclo24 (described herein above). Results are presented as percent human APOE RNA relative to the amount of APOE RNA in PBS treated animals, (% control). N.C. indicates values that were not calculated. Each experiment is identified in separate tables below.
The half maximal effective dose (ED50) of each modified oligonucleotide was calculated using GraphPad Prism 10 software (GraphPad Software, San Diego, CA).

human APOE RNA [2] = experiment: Activity in APOE C57BL/6NTac-Apoeem7250 knock-in mice, single ICV bolus, 4 weeks (Example 10); assay type: in vivo; conditions: single ICV bolus 300 μg
How it was run: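 Knock-in mice (2–4 per group) received one 300 μg ICV bolus of oligonucleotide or PBS. After four weeks, human APOE RNA in cortex and spinal cord measured by RT-qPCR (primer probe set RTS3073), normalized to mouse Ppia, expressed as % of PBS controls.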

human APOE RNA [3] = experiment: Dose-dependent inhibition of human APOE RNA in differentiated SH-SY5Y cells, free uptake, 5 days (Example 5); assay type: cell-based
How it was run: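 Differentiated SH-SY5Y cells (10,000/well) treated by free uptake with graded oligonucleotide concentrations for 5 days. APOE RNA quantified with primer probe set RTS3073, normalized to PPIA, expressed as % untreated control; IC50 calculated.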

human APOE RNA [4] = experiment: Dose-dependent reduction of human APOE RNA in HepG2 cells, electroporation, 20,000 cells per well, average of GAPDH- and PPIA-normalized results (Example 4, Table 12); assay type: cell-based; conditions: HepG2, 20,000 cells per well
Method: HepG2 cells plated at a density of 20,000 cells per well were treated by electroporation with various concentrations of modified oligonucleotide as specified in the tables below. […] APOE RNA levels were measured using the human primer probe set RTS3073 (described herein above). APOE RNA levels were normalized to human GAPDH, and human PPIA. Human GAPDH was amplified using human primer probe set RTS104 (described herein above). Human PPIA was amplified using human primer probe set mk_cycloA_2nd (described herein above) The average of the GAPDH-normalized results and the PPIA-normalized results are presented in the table below as percent APOE RNA, relative to the amount of APOE RNA in untreated control cells (% UTC). The half maximal inhibitory concentration (IC50) of each modified oligonucleotide was calculated in GraphPad Prism 10 (GraphPad Software, San Diego, CA) and is also presented in the table below.

human APOE RNA [5] = experiment: Activity in APOE C57BL/6NTac-Apoeem7250 knock-in mice, single ICV bolus, 8 weeks (Example 11); assay type: in vivo; conditions: for APOE RNA (% control) Cortex / APOE RNA (% control) Spinal Cord: single ICV bolus 300 μg, 8 weeks post treatment, normalized to mouse Ppia
How it was run: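 Human APOE knock-in C57BL/6NTac mice given one ICV bolus of 300 μg oligonucleotide; PBS-dosed group as control. At 8 weeks, cortex and spinal cord RNA measured by qRT-PCR (human probe RTS3073), normalized to mouse Ppia, expressed as % of PBS control.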

Substance: Aes^mCeoTeoTesGesGksTdsGdzAdzAdzTds^mCdsTdsTdsTdsAdzTksTksAesAe (eA*e[5mC]eTeT*eG*kG*dT*dG[ms]dA[ms]dA[ms]dT*d[5mC]*dT*dT*dT*dA[ms]kT*kT*eA*eA) [Compound No. 1757576]
- APOE RNA (% control) Cortex (human APOE RNA [1]; ICV dose 10 μg): 108 % control
- APOE RNA (% control) Cortex (human APOE RNA [1]; ICV dose 30 μg): 121 % control
- APOE RNA (% control) Cortex (human APOE RNA [1]; ICV dose 100 μg): 63 % control
- APOE RNA (% control) Cortex (human APOE RNA [1]; ICV dose 300 μg): 37 % control
- APOE RNA (% control) Cortex (human APOE RNA [1]; ICV dose 700 μg): 31 % control
- ED 50 (μg) Cortex (human APOE RNA [1]): 235.5 µg
- APOE RNA (% control) Spinal Cord (human APOE RNA [1]; ICV dose 10 μg): 58 % control
- APOE RNA (% control) Spinal Cord (human APOE RNA [1]; ICV dose 30 μg): 55 % control
- APOE RNA (% control) Spinal Cord (human APOE RNA [1]; ICV dose 100 μg): 23 % control
- APOE RNA (% control) Spinal Cord (human APOE RNA [1]; ICV dose 300 μg): 20 % control
- APOE RNA (% control) Spinal Cord (human APOE RNA [1]; ICV dose 700 μg): 18 % control
- ED 50 (μg) Spinal Cord (human APOE RNA [1]): 23.0 µg
- APOE RNA (% control) Cortex (human APOE RNA [2]; cortex, 4 weeks post treatment, normalized to mouse Ppia): 29 % control
- APOE RNA (% control) Spinal Cord (human APOE RNA [2]; spinal cord, 4 weeks post treatment, normalized to mouse Ppia): 23 % control
- APOE RNA (% UTC) (human APOE RNA [3]; 5 nM, 5 days (Table 13)): 75 % UTC
- APOE RNA (% UTC) (human APOE RNA [3]; 5 nM, 5 days (Table 14)): 68 % UTC
- APOE RNA (% UTC) (human APOE RNA [3]; 13 nM, 5 days (Table 13)): 71 % UTC
- APOE RNA (% UTC) (human APOE RNA [3]; 13 nM, 5 days (Table 14)): 51 % UTC
- APOE RNA (% UTC) (human APOE RNA [3]; 33 nM, 5 days (Table 13)): 45 % UTC
- APOE RNA (% UTC) (human APOE RNA [3]; 33 nM, 5 days (Table 14)): 44 % UTC
- APOE RNA (% UTC) (human APOE RNA [3]; 82 nM, 5 days (Table 13)): 42 % UTC
- APOE RNA (% UTC) (human APOE RNA [3]; 82 nM, 5 days (Table 14)): 35 % UTC
- APOE RNA (% UTC) (human APOE RNA [3]; 205 nM, 5 days (Table 13)): 43 % UTC
- APOE RNA (% UTC) (human APOE RNA [3]; 205 nM, 5 days (Table 14)): 32 % UTC
- APOE RNA (% UTC) (human APOE RNA [3]; 512 nM, 5 days (Table 13)): 31 % UTC
- APOE RNA (% UTC) (human APOE RNA [3]; 512 nM, 5 days (Table 14)): 32 % UTC
- APOE RNA (% UTC) (human APOE RNA [3]; 1,280 nM, 5 days (Table 13)): 29 % UTC
- APOE RNA (% UTC) (human APOE RNA [3]; 1,280 nM, 5 days (Table 14)): 27 % UTC
- APOE RNA (% UTC) (human APOE RNA [3]; 3,200 nM, 5 days (Table 13)): 27 % UTC
- APOE RNA (% UTC) (human APOE RNA [3]; 3,200 nM, 5 days (Table 14)): 23 % UTC
- APOE RNA (% UTC) (human APOE RNA [3]; 8,000 nM, 5 days (Table 13)): 12 % UTC
- APOE RNA (% UTC) (human APOE RNA [3]; 8,000 nM, 5 days (Table 14)): 17 % UTC
- APOE RNA (% UTC) (human APOE RNA [3]; 20,000 nM, 5 days (Table 13)): 18 % UTC
- APOE RNA (% UTC) (human APOE RNA [3]; 20,000 nM, 5 days (Table 14)): 6 % UTC
- IC50 (human APOE RNA [3]; 5 days (Table 13)): 70 nM
- IC50 (human APOE RNA [3]; 5 days (Table 14)): 20 nM
- APOE RNA (% UTC) (human APOE RNA [4]; 5 nM): 94 % UTC
- APOE RNA (% UTC) (human APOE RNA [4]; 13 nM): 88 % UTC
- APOE RNA (% UTC) (human APOE RNA [4]; 33 nM): 83 % UTC
- APOE RNA (% UTC) (human APOE RNA [4]; 82 nM): 77 % UTC
- APOE RNA (% UTC) (human APOE RNA [4]; 205 nM): 61 % UTC
- APOE RNA (% UTC) (human APOE RNA [4]; 512 nM): 40 % UTC
- APOE RNA (% UTC) (human APOE RNA [4]; 1,280 nM): 29 % UTC
- APOE RNA (% UTC) (human APOE RNA [4]; 3,200 nM): 22 % UTC
- APOE RNA (% UTC) (human APOE RNA [4]; 8,000 nM): 11 % UTC
- APOE RNA (% UTC) (human APOE RNA [4]; 20,000 nM): 6 % UTC
- IC50 (human APOE RNA [4]; approximately 24 hours): 370 nM
- reduction of human APOE RNA in the cortex (human APOE RNA [5]; APOE knock-in mouse model, 8 weeks post administration, assay of Example 11): 79%
- APOE RNA (% control) Cortex (human APOE RNA [5]): 29 % control and 21 % control
- APOE RNA (% control) Spinal Cord (human APOE RNA [5]): 15 % control and 10 % control

Substance: 1693105: 6-10-4 MOE gapmer CTTGGTGAATCTTTATTAAA, linkages sosssszzzssssszssss (e[5mC]*eTeT*eG*eG*eT*dG[ms]dA[ms]dA[ms]dT*d[5mC]*dT*dT*dT*dA[ms]dT*eT*eA*eA*eA) [compound 1693105]
- APOE RNA (% control) Cortex (human APOE RNA [1]; ICV dose 10 μg): 100 % control
- APOE RNA (% control) Cortex (human APOE RNA [1]; ICV dose 30 μg): 85 % control
- APOE RNA (% control) Cortex (human APOE RNA [1]; ICV dose 100 μg): 77 % control
- APOE RNA (% control) Cortex (human APOE RNA [1]; ICV dose 300 μg): 59 % control
- APOE RNA (% control) Cortex (human APOE RNA [1]; ICV dose 700 μg): 48 % control
- ED 50 (μg) Cortex (human APOE RNA [1]): 573.3 µg
- APOE RNA (% control) Spinal Cord (human APOE RNA [1]; ICV dose 10 μg): 71 % control
- APOE RNA (% control) Spinal Cord (human APOE RNA [1]; ICV dose 30 μg): 71 % control
- APOE RNA (% control) Spinal Cord (human APOE RNA [1]; ICV dose 100 μg): 47 % control
- APOE RNA (% control) Spinal Cord (human APOE RNA [1]; ICV dose 300 μg): 49 % control
- APOE RNA (% control) Spinal Cord (human APOE RNA [1]; ICV dose 700 μg): 61 % control
- ED 50 (μg) Spinal Cord (human APOE RNA [1]): 892.8 µg
- APOE RNA (% control) Cortex (human APOE RNA [2]; Cortex, C57BL/6NTac-Apoeem7250 knock-in mice, 4 weeks (Table 21)): 54 % control
- APOE RNA (% control) Cortex (human APOE RNA [2]; Cortex, C57BL/6NTac-Apoeem7250 knock-in mice, 4 weeks (Table 22)): 65 % control
- APOE RNA (% control) Spinal Cord (human APOE RNA [2]; Spinal Cord, C57BL/6NTac-Apoeem7250 knock-in mice, 4 weeks (Table 21)): 51 % control
- APOE RNA (% control) Spinal Cord (human APOE RNA [2]; Spinal Cord, C57BL/6NTac-Apoeem7250 knock-in mice, 4 weeks (Table 22)): 87 % control
- APOE RNA (% control) Cortex (human APOE RNA [5]): 58 % control
- APOE RNA (% control) Spinal Cord (human APOE RNA [5]): 43 % control
